Assay results published in the supplement of paper PMC10307832.

Columns and labels:
Test in all cases: relative viability (nuclei count vs DMSO), 5 days (fraction); higher = more cells survive
[1] = compound: CC(C)N(CCCNC(=O)Nc1ccc(C(C)(C)C)cc1)C[C@H]1O[C@@H](n2ccc3c(N)ncnc32)[C@H](O)[C@@H]1O + Nc1ncn([C@H]2C[C@H](O)[C@@H](CO)O2)c(=O)n1 [Decitabine] (partner 2 µM)
Outline: (§1)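 Dosing by pin tool came one day after lung cancer cell lines were seeded in 1536-well plates, using either one drug or a fixed anchor-drug dose plus five library-drug doses (not always all listed) in √10 steps. After 5 days, nuclei were counted on 4× images. Relative viability is treated-well nuclei count divided by vehicle-well nuclei count, and values are medians of duplicate plates.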

[2] = compound: CC(C)N(CCCNC(=O)Nc1ccc(C(C)(C)C)cc1)C[C@H]1O[C@@H](n2ccc3c(N)ncnc32)[C@H](O)[C@@H]1O + CC(=O)c1c(C)c2cnc(Nc3ccc(N4CCNCC4)cn3)nc2n(C2CCCC2)c1=O [Palbociclib] (partner 0.5 µM)
Outline: as §1

[3] = compound: CC(C)=CC[C@@H](O)C1=CC(=O)c2c(O)ccc(O)c2C1=O [Shikonin] + C[C@@H](Oc1cc(-c2cnn(C3CCNCC3)c2)cnc1N)c1c(Cl)ccc(F)c1Cl [Crizotinib] (partner 1 µM)
Outline: as §1

[4] = compound: CC(C)=CC[C@@H](O)C1=CC(=O)c2c(O)ccc(O)c2C1=O [Shikonin] + C[C@]1(O)C[C@@H](c2nc(-c3ccc4ccc(-c5ccccc5)nc4c3)c3c(N)nccn32)C1 [Linsitinib] (partner 1 µM)
Outline: as §1

NCI-H2126
relative viability ([1]; first compound 0.08 µM): 0.568 | relative viability ([1]; first compound 0.253 µM): 0.591 | relative viability ([1]; first compound 0.8 µM): 0.557 | relative viability ([1]; first compound 2.53 µM): 0.551 | relative viability ([1]; first compound 8 µM): 0.508 | relative viability ([2]; first compound 0.08 µM): 0.358 | relative viability ([2]; first compound 0.253 µM): 0.366 | relative viability ([2]; first compound 0.8 µM): 0.355 | relative viability ([2]; first compound 2.53 µM): 0.378 | relative viability ([2]; first compound 8 µM): 0.371 | relative viability ([3]; first compound 0.01 µM): 1.08 | relative viability ([3]; first compound 0.1 µM): 1.21 | relative viability ([3]; first compound 0.3162 µM): 1.1 | relative viability ([3]; first compound 1 µM): 1.04 | relative viability ([4]; first compound 0.01 µM): 0.71 | relative viability ([4]; first compound 0.1 µM): 0.814 | relative viability ([4]; first compound 0.3162 µM): 0.752 | relative viability ([4]; first compound 1 µM): 0.699

NCI-H2347
relative viability ([1]; first compound 0.08 µM): 0.529 | relative viability ([1]; first compound 0.253 µM): 0.688 | relative viability ([1]; first compound 0.8 µM): 0.616 | relative viability ([1]; first compound 2.53 µM): 0.664 | relative viability ([1]; first compound 8 µM): 0.432 | relative viability ([2]; first compound 0.08 µM): 0.423 | relative viability ([2]; first compound 0.253 µM): 0.44 | relative viability ([2]; first compound 0.8 µM): 0.407 | relative viability ([2]; first compound 2.53 µM): 0.553 | relative viability ([2]; first compound 8 µM): 0.404 | relative viability ([3]; first compound 0.01 µM): 0.69 | relative viability ([3]; first compound 0.1 µM): 0.0168 | relative viability ([3]; first compound 0.3162 µM): 0.795 | relative viability ([3]; first compound 1 µM): 0.715 | relative viability ([4]; first compound 0.01 µM): 0.976 | relative viability ([4]; first compound 0.1 µM): 0.987 | relative viability ([4]; first compound 0.3162 µM): 1.07 | relative viability ([4]; first compound 1 µM): 0.977

NCI-H2405
relative viability ([1]; first compound 0.08 µM): 0.723 | relative viability ([1]; first compound 0.253 µM): 0.748 | relative viability ([1]; first compound 0.8 µM): 0.741 | relative viability ([1]; first compound 2.53 µM): 0.745 | relative viability ([1]; first compound 8 µM): 0.708 | relative viability ([2]; first compound 0.08 µM): 0.515 | relative viability ([2]; first compound 0.253 µM): 0.539 | relative viability ([2]; first compound 0.8 µM): 0.532 | relative viability ([2]; first compound 2.53 µM): 0.546 | relative viability ([2]; first compound 8 µM): 0.507 | relative viability ([3]; first compound 0.01 µM): 0.854 | relative viability ([3]; first compound 0.1 µM): 0.819 | relative viability ([3]; first compound 0.3162 µM): 0.935 | relative viability ([3]; first compound 1 µM): 0.852 | relative viability ([4]; first compound 0.01 µM): 0.903 | relative viability ([4]; first compound 0.1 µM): 0.982 | relative viability ([4]; first compound 0.3162 µM): 1.01 | relative viability ([4]; first compound 1 µM): 0.914

NCI-H3122
relative viability ([1]; first compound 0.08 µM): 0.445 | relative viability ([1]; first compound 0.253 µM): 0.467 | relative viability ([1]; first compound 0.8 µM): 0.462 | relative viability ([1]; first compound 2.53 µM): 0.409 | relative viability ([1]; first compound 8 µM): 0.481 | relative viability ([2]; first compound 0.08 µM): 0.204 | relative viability ([2]; first compound 0.253 µM): 0.162 | relative viability ([2]; first compound 0.8 µM): 0.161 | relative viability ([2]; first compound 2.53 µM): 0.198 | relative viability ([2]; first compound 8 µM): 0.197 | relative viability ([3]; first compound 0.01 µM): 0.288 | relative viability ([3]; first compound 0.1 µM): 0.271 | relative viability ([3]; first compound 0.3162 µM): 0.278 | relative viability ([3]; first compound 1 µM): 0.248 | relative viability ([4]; first compound 0.01 µM): 1.03 | relative viability ([4]; first compound 0.1 µM): 1.07 | relative viability ([4]; first compound 0.3162 µM): 1.09 | relative viability ([4]; first compound 1 µM): 1.03
